Experimental data as given in publication PMC3905878 (2013).

Key:
[1] = test system: T. tengcongensis preQ1-I riboswitch 33-mer (RNA, riboswitch) CUGGGUCGCAGUAACCCCAGUUAACAAAACAAG; assay: ITC; settings: 100 mM NaCl, 6 mM MgCl2; 50 mM HEPES-NaOH pH 7.0, 25 °C; Table S3 prints 7.4 ± 2.3
[2] = test system: Bsu A27C mutant (RNA, riboswitch, 5-aminoallyl-uridine at 13) AGAGGUUCUAGCUACACCCUCUAUAACAAACUAAGG; assay: smFRET, fraction of high-FRET state; settings: 100 mM KCl, 1 mM MgCl2; 50 mM Tris-HCl pH 7.5, room temperature; apparent
[3] = test system: Bsu preQ1 riboswitch (wild-type, smFRET construct) (RNA, riboswitch, 5-aminoallyl-uridine at 13) AGAGGUUCUAGCUACACCCUCUAUAAAAAACUAAGG; assay: smFRET, fraction of high-FRET state; settings: 100 mM KCl, 1 mM MgCl2; 50 mM Tris-HCl pH 7.5, room temperature; apparent; high-FRET saturates near 50%
[4] = test system: Tte preQ1 riboswitch (wild-type, smFRET construct) (RNA, riboswitch, 5-aminoallyl-uridine at 12) CUGGGUCGCAGUAACCCCAGUUAACAAAACAAGGG; assay: smFRET, fraction of high-FRET state; settings: 100 mM KCl, 1 mM MgCl2; 50 mM Tris-HCl pH 7.5, room temperature; apparent; high-FRET saturates near 50%

KD [1]: 7.3 ± 2.3 nM
K1/2 [2]: 11 µM
K1/2 [3]: 134 ± 45 nM
K1/2 [4]: 69 ± 22 nM
SMILES: NCc1c[nH]c2nc(N)[nH]c(=O)c12
